This note sets out measurements from ChEMBL document CHEMBL4834412, “2,4,5-Trisubstituted Pyrimidines as Potent HIV-1 NNRTIs: Rational Design, Synthesis, Activity Evaluation, and Crystallographic Studies” (J Med Chem, 2021).

What all share (type): functional, organism-based
Test [1] deals with Human immunodeficiency virus 1. In words: Antiviral activity against NNRTI-resistant HIV-1 RES056 harboring RT K103N/Y181C mutant infected in human MT4 cells assessed as protection against virus-induced cytopathogenicity after 5 days by MTT assay. The conditions noted are these: Human immunodeficiency virus 1, RES056, MT4, 120 h. Background: Damage to the host cells serves as the signal in cytopathic effect assays.

Test [2] relates to Human immunodeficiency virus 1. The experiment in a line: Antiviral activity against HIV-1 strain IIIB infected in human MT4 cells assessed as protection against virus-induced cytopathicity after 5 days by MTT assay. Particulars: Human immunodeficiency virus 1, IIIB, MT4, 120 h.
For test [3], the system named is Human immunodeficiency virus 1. In words: Antiviral activity against HIV-1 harboring RT Y181C mutant infected in human MT4 cells assessed as protection against virus-induced cytopathogenicity after 5 days by MTT assay. Particulars: Human immunodeficiency virus 1, MT4, 120 h.
Test [4] has as its system Human immunodeficiency virus 1. The experiment in a line: Antiviral activity against HIV-1 harboring RT L100I mutant infected in human MT4 cells assessed as protection against virus-induced cytopathogenicity after 5 days by MTT assay. The conditions noted are these: Human immunodeficiency virus 1, MT4, 120 h.
The test system of test [5] is Human immunodeficiency virus 1. The experiment in a line: Antiviral activity against HIV-1 harboring RT K103N mutant infected in human MT4 cells assessed as protection against virus-induced cytopathogenicity after 5 days by MTT assay. Particulars: Human immunodeficiency virus 1, MT4, 120 h.
Test [6] deals with Human immunodeficiency virus 1. The experiment in a line: Antiviral activity against HIV-1 harboring RT F227L/V106A mutant infected in human MT4 cells assessed as protection against virus-induced cytopathogenicity after 5 days by MTT assay. Particulars: Human immunodeficiency virus 1, MT4, 120 h.
Test [7] relates to Human immunodeficiency virus 1. The experiment in a line: Antiviral activity against HIV-1 harboring RT E138K mutant infected in human MT4 cells assessed as protection against virus-induced cytopathogenicity after 5 days by MTT assay. The conditions noted are these: Human immunodeficiency virus 1, MT4, 120 h.
The subject of test [8] is Human immunodeficiency virus 1. In words: Antiviral activity against HIV-1 harboring RT Y188L mutant infected in human MT4 cells assessed as protection against virus-induced cytopathogenicity after 5 days by MTT assay. The conditions noted are these: Human immunodeficiency virus 1, MT4, 120 h.

The structures appear in SMILES notation.

As to `COc1cc(-c2cnc(NC3CCN(Cc4ccc(C(N)=O)cc4)CC3)nc2Oc2c(C)cc(/C=C/C#N)cc2C)ccn1`, the EC50 in test [1] was 40.3 nM; in test [2], 7.28 nM.
On to `Cc1cc(/C=C/C#N)cc(C)c1Oc1nc(NC2CCN(Cc3ccc(C(N)=O)cc3)CC2)ncc1-c1ccncc1`, for which the EC50 in test [3] was 7.14 nM; in test [4], 5.62 nM; in test [5] it was 3.84 nM; in test [6], 35.5 nM; in test [1] it was 23.3 nM; in test [2] it was 4.19 nM. The figures for the EC50 in test [7] and in test [8] were 8.66 nM and 23 nM, respectively.
Consider `Cc1cc(/C=C/C#N)cc(C)c1Oc1nc(NC2CCN(Cc3ccc(S(N)(=O)=O)cc3)CC2)ncc1-c1ccnc(Cl)c1`, for which the concentration for a half-maximal effect (EC50) in test [1] was 20.9 nM; in test [2], 4.3 nM.
Consider `Cc1cc(C#N)cc(C)c1Oc1nc(NC2CCN(Cc3ccc(S(N)(=O)=O)cc3)CC2)ncc1-c1ccco1`, for which the 50% effective concentration (EC50) in test [3] turned out to be 24.8 nM; in test [4], 20.9 nM; in test [5], 5.33 nM; in test [6], 128 nM; in test [1] it was 218 nM; in test [2], 4.4 nM. Further, the EC50 amounted to 24.5 nM in test [7] and 36.5 nM in test [8].
Take `Cc1cc(C#N)cc(C)c1Oc1nc(NC2CCN(Cc3ccc(S(C)(=O)=O)cc3)CC2)ncc1-c1ccncc1`: the EC50 came out at 10.8 nM in test [3]; 17.4 nM in test [4]; 4.4 nM in test [5]; 79.4 nM in test [6]; 244 nM in test [1]; 5.93 nM in test [2]. Further, the 50% effective concentration (EC50) in test [7] was 9.19 nM; in test [8], 18.5 nM.
`Cc1cc(/C=C/C#N)cc(C)c1Oc1nc(NC2CCN(Cc3ccc(C(N)=O)cc3)CC2)ncc1-c1cccnc1`: the EC50 in test [3] came to 10.1 nM; in test [4], 10.8 nM; in test [5] it was 5.76 nM; in test [6], 21.7 nM; in test [1] it was 23.1 nM; in test [2], 4.78 nM. In addition, the EC50 in test [7] is 11.3 nM; in test [8], 25.5 nM.
In the case of `Cc1cc(C#N)cc(C)c1Oc1nc(NC2CCN(Cc3ccc(S(C)(=O)=O)cc3)CC2)ncc1-c1ccccc1`, the EC50 in test [3] worked out at 33.7 nM; in test [4] it was 71.7 nM; in test [5], 11.7 nM; in test [6] it was 218 nM; in test [1], 590 nM; in test [2], 4.93 nM. The EC50 worked out at 32.1 nM in test [7] and 35.5 nM in test [8].
Consider `Cc1cc(-c2cnc(NC3CCN(Cc4ccc(S(N)(=O)=O)cc4)CC3)nc2Oc2c(C)cc(/C=C/C#N)cc2C)ccn1`, for which the concentration for a half-maximal effect (EC50) in test [1] amounted to 23 nM; in test [2], 4.16 nM.
`Cc1cc(/C=C/C#N)cc(C)c1Oc1nc(NC2CCN(Cc3ccc(S(N)(=O)=O)cc3)CC2)ncc1-c1ccncc1`: the EC50 in test [3] amounted to 24.2 nM; in test [4] it was 5.87 nM; in test [5], 4.91 nM; in test [6], 23.7 nM; in test [1], 22.9 nM; in test [2], 4.6 nM. Moreover, the results for the EC50 in test [7] and in test [8] were 11.1 nM and 27.1 nM, respectively.
On to `Cc1cc(/C=C/C#N)cc(C)c1Oc1nc(NC2CCN(Cc3ccc(C(N)=O)cc3)CC2)ncc1-c1ccc(N)nc1`, for which the concentration for a half-maximal effect (EC50) in test [3] is 12 nM; in test [4], 11.3 nM; in test [5] it was 6.66 nM; in test [6] it was 15.4 nM; in test [1], 30.2 nM; in test [2] it was 6.56 nM. The EC50 came to 15.4 nM in test [7] and 54.2 nM in test [8].
Regarding `Cc1cc(C#N)cc(C)c1Oc1nc(Nc2ccc(C#N)cc2)nc(N)c1Br` [ETRAVIRINE], the EC50 in test [3] was determined as 13.6 nM; in test [7] it was 7.17 nM; in test [8], 13.7 nM.
With `Cc1cc(/C=C/C#N)cc(C)c1Oc1nc(NC2CCN(Cc3ccc(S(C)(=O)=O)cc3)CC2)ncc1-c1ccnc(F)c1`, the results for the EC50 in test [1] and in test [2] were 25.1 nM and 4.75 nM, respectively.
In the same order, the values of `Cc1cc(/C=C/C#N)cc(C)c1Oc1nc(NC2CCN(Cc3ccc(S(C)(=O)=O)cc3)CC2)ncc1-c1ccc(N)nc1` are 26.2 nM and 5.29 nM.
As to `Cc1cc(/C=C/C#N)cc(C)c1Oc1nc(NC2CCN(Cc3ccc(C(N)=O)cc3)CC2)ncc1-c1ccc(F)nc1`, the 50% effective concentration (EC50) in test [3] turned out to be 10.3 nM; in test [4] it was 5.76 nM; in test [5] it was 5.97 nM; in test [6] it was 27.5 nM; in test [1], 20.4 nM; in test [2], 4.56 nM. Also, the concentration for a half-maximal effect (EC50) stood at 11.7 nM in test [7] and 30.1 nM in test [8].
Regarding `Cc1cc(/C=C/C#N)cc(C)c1Oc1nc(NC2CCN(Cc3ccc(S(C)(=O)=O)cc3)CC2)ncc1-c1ccnc(Cl)c1`, the EC50 came out at 33.3 nM in test [1] and 4.23 nM in test [2].
Consider `Cc1cc(-c2cnc(NC3CCN(Cc4ccc(S(C)(=O)=O)cc4)CC3)nc2Oc2c(C)cc(/C=C/C#N)cc2C)ccn1`, for which the EC50 in test [1] came out at 31.5 nM; in test [2] it was 4.55 nM.
On to `Cc1cc(/C=C/C#N)cc(C)c1Oc1nc(NC2CCN(Cc3ccc(S(N)(=O)=O)cc3)CC2)ncc1-c1ccnc(Br)c1`, for which the EC50 was 26.9 nM in test [1] and 4.42 nM in test [2].
As to `Cc1cc(/C=C/C#N)cc(C)c1Oc1nc(NC2CCN(Cc3ccc(S(C)(=O)=O)cc3)CC2)ncc1-c1ccncc1`, the 50% effective concentration (EC50) in test [1] came out at 26.3 nM; in test [2] it was 5.74 nM.
In the same order, the values of `COc1cc(-c2cnc(NC3CCN(Cc4ccc(S(C)(=O)=O)cc4)CC3)nc2Oc2c(C)cc(/C=C/C#N)cc2C)ccn1` are 30 nM and 3.95 nM.
Regarding `Cc1cc(/C=C/C#N)cc(C)c1Oc1nc(NC2CCN(Cc3ccc(C(N)=O)cc3)CC2)ncc1-c1ccnc(F)c1`, the EC50 in test [1] turned out to be 53.4 nM; in test [2], 8.26 nM.
With `Cc1cc(/C=C/C#N)cc(C)c1Oc1nc(NC2CCN(Cc3ccc(S(N)(=O)=O)cc3)CC2)ncc1-c1ccnc(F)c1`, the EC50 in test [1] stood at 38.8 nM; in test [2], 6.37 nM.
For `Cc1cc(/C=C/C#N)cc(C)c1Oc1nc(NC2CCN(Cc3ccc(C(N)=O)cc3)CC2)ncc1-c1ccnc(Cl)c1` the same measures were 81.7 nM and 4.14 nM.
For `Cc1cc(/C=C/C#N)cc(C)c1Oc1nc(NC2CCN(Cc3ccc(S(C)(=O)=O)cc3)CC2)ncc1-c1ccnc(Br)c1` the same measures were 33.2 nM and 4.52 nM.
For `Cc1cc(/C=C/C#N)cc(C)c1Oc1nc(NC2CCN(Cc3ccc(C(N)=O)cc3)CC2)ncc1-c1ccnc(Br)c1` the same measures were 32.2 nM and 7 nM.
Consider `Cc1cc(-c2cnc(NC3CCN(Cc4ccc(C(N)=O)cc4)CC3)nc2Oc2c(C)cc(/C=C/C#N)cc2C)ccn1`, for which the 50% effective concentration (EC50) came to 18.1 nM in test [1] and 3.53 nM in test [2].
Take `COc1cc(-c2cnc(NC3CCN(Cc4ccc(S(N)(=O)=O)cc4)CC3)nc2Oc2c(C)cc(/C=C/C#N)cc2C)ccn1`: the half-maximal effective concentration (EC50) in test [1] was 34.3 nM; in test [2], 5.75 nM.
For `Cc1cc(/C=C/C#N)cc(C)c1Oc1nc(NC2CCN(Cc3ccc(S(N)(=O)=O)cc3)CC2)ncc1-c1ccc(N)nc1` the same measures were 33.5 nM and 5.8 nM.
In the same order, the values of `Cc1cc(/C=C/C#N)cc(C)c1Oc1nc(NC2CCN(Cc3ccc(S(C)(=O)=O)cc3)CC2)ncc1-c1ccc(F)nc1` are 25.5 nM and 6.04 nM.

What is called EC50 is the concentration that produces a half-maximal response.
